How the values were obtained:
[1] = Pharmacokinetics in liver and tissues after oral administration; type: in vivo, mice
Method: Compound 1 (20 mg per kg), Compound 5 (10 mg per kg), and pentamidine (20 mg per kg) were tested for their PK. Tissue samples were collected as described above in Example 23. Briefly, blood samples (approximately […]) were collected under light isoflurane anesthesia from retro orbital plexus of mice at 0.5, 1, 3, 8, 48 and 72 hr. Plasma samples were separated by centrifugation at 2,000×g for 6 minutes and stored below −70±10° C. until bioanalysis. Immediately after collection of blood, animals were euthanized using excess CO2 asphyxiation and samples were collected from set of five mice at each time point. Collected tissue samples were immediately dipped and rinsed three times in ice cold PBS (for 5-10 seconds/rinse using ˜5-10 mL fresh PBS in disposable petri dish for each rinse) and dried on blotting paper. Tissue samples were homogenized using ice-cold phosphate buffer saline (pH7.4) and homogenates were stored below −70±10° C. until analysis. Total homogenate volume was three times the tissue weight except for liver samples, total homogenate volume was ten times the liver weight. Bioanalysis process was determined by fit-for-purpose LC-MS/MS method.
Calibration standards were prepared by spiking the test compound into blank plasma. 10 μL of working calibration standard was spiked into 190 μL of blank Mice Plasma or tissue homogenate to generate linearly spiked calibration standards. Calibrator concentrations were 5,000, 2,000, 1,000, 200, 100, 20, 10, 2 and 1 ng/mL. Calibration standard samples were processed along with the test samples. Twenty-five μL aliquots of plasma or tissue homogenate test samples were treated with 100 μL of acetonitrile containing internal standard (500 ng/mL Glipizide). Samples were vortexed for 5 minutes. Samples were centrifuged for 10 minutes at a speed of 4000 rpm at 4° C. Following centrifugation, 100 μL of clear supernatant was transferred in 96-well plates of and analyzed using LC-MS/MS. Chromatographic separation was achieved using a Kintex Polar column (C18, 100×4.6 mm, 5μ) and column oven temperature 45° C. For compound 1 diHCl the mobile phase A was water with 0.1% formic acid in Acetonitrile; mobile phase B was 10 mM ammonium formate. However, the mobile phase for pentamidine and Compound 5 mobile phase A was water with 0.1% formic acid and mobile phase B acetonitrile with 0.1% formic acid.
The gradient program for Compound 1 was as follows: 5% B (1-2.40 min), 90% B (2.60-3.00 min), and the initial for B was 90%. The retention rate was 1.47 per minute and the internal standard Glipizide was 1 per 9 minutes. The column was maintained at 45° C. For pentamidine and Compound 5, analysis was performed using 233 MassSpec by AB Sciex API5000 with Turbo Ion Spray interface operating in a positive ionization mode. Quantification was performed using multiple reaction monitoring (MRM) method with the transitions of (m/z) 328 à (m/z) 311 for Compound 5 and (m/z) 548 à (m/z) 366 for Edoxaban (internal standard). While, for pentamidine (m/z) 341 à (m/z) 324 and (m/z) 548 à (m/z) 366 for Verapmil (internal standard).
The gradient program for Compound 5 was as follows: 10% B (0-0.2 min), 95% B (1.5-2 min), the initial for B was 10% and it stopped at 2.6 mins. The flow rate was 0.5 mL/min. The gradient program for pentamidine was as follows: 10% B (0-0.2 min), 95% B (1.4-2 min), the initial for B was 10% and it stopped at 2.5 mins. The flow rate was 0.5 mL/min.

MCF7 = assay: CellTiter-Glo cytotoxicity, cancer cell line panel / breast cancer study; type: cell-based; conditions: Homo sapiens; MCF7, Invasive ductal carcinoma
Method: (§1) The objective of this study is to investigate potential cell killing effect of Compounds 1-15 on 3 cancer cell lines. 50% inhibition concentration (IC50) was determined for these compounds in various cancer cell lines using CellTiter-Glo™ luminescent cell viability assay at different compound concentrations. Each cell line (e.g., NCI-H209; NCI-H69; and SW1271) was treated with Compounds 1-15 and culture medium contains 0.2% [v/v] DMSO vehicle control. All the cells were cultured in the media supplemented with 10-20% fetal bovine serum at 37° C., 5% CO2 and 95% humidity.
(§2) The objective of this study is to investigate the effect of Compound 1 on cytotoxicity against 61 different types of cancer cell lines. IC50 were values were obtained using CellTiter-Glo™ as described above. Each cell line shown in Table 3 was treated with Compound 1, a standard chemotherapy drug, cisplatin, as reference control and culture medium contains 0.2% [v/v] DMSO vehicle control. All cancer cell lines were cultured in media supplemented with 10-20% fetal bovine serum at 37° C., 5% CO2 and 95% humidity.
(§3) The objective of this study is to investigate the effect of Compound 1 on cell viability of various types of breast cancer. Four different breast cancer cell lines were employed in the study. Each cell line shown in Table 5 was treated with Compound 1 and standard of care (cisplatin) and culture medium contains 0.2% [v/v] DMSO vehicle control and IC50 values were obtained as described above. The raw data values from the CellTiter-Glo™ cell viability assay expressed in relative luminescence units were normalized to the vehicle for each individual plate, and any reduction in luminescence indicated a decrease in viability (%). The data was analyzed in GraphPad PRISM using a non-linear sigmoidal plot with variable slope (asymmetric four-point linear regression), and an IC50 value for each compound was generated. The experiment tested pentamidine, compound 1, and standard-of-care control Cisplatin in full growth media for 8 days. Cells were initially treated with the test compounds on Day 0, and the cells were then replenished with fresh compound dilutions on Day 3. Pentamidine, Compound 1, and cisplatin were tested at 9 concentration points; 100, 33.33, 11.11, 3.70, 1.23, 0.41, 0.14, 0.05, and 0.02 μM (final DMSO concentration=0.5%).

HCC1954 = assay: as above; type: cell-based; conditions: Homo sapiens; HCC1954, Ductal breast carcinoma
Method: as §1, §2, §3

DU4475 = assay: as above; type: cell-based; conditions: Homo sapiens, DU-4475; DU4475, Breast carcinoma
Method: as §1, §2, §3

ZR-75-1 = assay: as above; type: cell-based; conditions: Homo sapiens; ZR-75-1, Invasive ductal carcinoma
Method: as §1, §2, §3

## N=C(N)c1ccc(OCCCCCOc2ccc(C(=N)N)nc2)cc1 [Compound 1, 5-(5-(4-carbamimidoylphenoxy)pentyloxy)picolinimidamide]
[1]; 20 mpk p.o. both
  Cmax normalized to dose, liver, relative to pentamidine: ~7 folds
[1]; Compound 1 20 mpk, Compound 5 10 mpk, p.o.
  exposure to the liver vs pentamidine (20 mpk): greater exposure to the liver than pentamidine
[1]; liver, p.o.
  half-life vs pentamidine: higher half-life than pentamidine
[1]; liver, small intestine, ileum, p.o.
  tissue exposure: increased exposure in the liver as well as small intestine and ileum
[1]; plasma vs other tissues, p.o.
  exposure to the plasma: low in comparison to other tissues
MCF7
  IC50: 0.93 µM
HCC1954
  IC50: 2.71 µM
DU4475
  IC50: 0.24 µM
ZR-75-1
  IC50: 1.32 µM

— US20250388542A1, “ANALOGUES OF PENTAMIDINE AND USES THEREFOR” (Auransa Inc., priority 2018, published 2025)
